Where a name gives a salt, the structure may show the parent alone. Read-outs that look alike come from different tables or passages of the source.
What was measured:
Format in all cases: biochemical
[1] = biological target: T1, Recombinant Human Anaplastic Lymphoma Kinase (Homo sapiens, UniProt Q9UM73); experiment: ALK HTRF kinase assay
T1 construct: purchased Invitrogen, Carlsbad, Calif
Outline: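 TR-FRET read-out (Eu anti-pTyr antibody + streptavidin-APC) of biotin-peptide phosphorylation by recombinant human enzyme; IC50 by sigmoidal fit with top/bottom baselines and Hill slope.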

TYK2 = TYK2 (Homo sapiens, UniProt P29597); experiment: TYK2 kinase inhibition (Table A1)
TYK2, sequence (P29597 whole entry): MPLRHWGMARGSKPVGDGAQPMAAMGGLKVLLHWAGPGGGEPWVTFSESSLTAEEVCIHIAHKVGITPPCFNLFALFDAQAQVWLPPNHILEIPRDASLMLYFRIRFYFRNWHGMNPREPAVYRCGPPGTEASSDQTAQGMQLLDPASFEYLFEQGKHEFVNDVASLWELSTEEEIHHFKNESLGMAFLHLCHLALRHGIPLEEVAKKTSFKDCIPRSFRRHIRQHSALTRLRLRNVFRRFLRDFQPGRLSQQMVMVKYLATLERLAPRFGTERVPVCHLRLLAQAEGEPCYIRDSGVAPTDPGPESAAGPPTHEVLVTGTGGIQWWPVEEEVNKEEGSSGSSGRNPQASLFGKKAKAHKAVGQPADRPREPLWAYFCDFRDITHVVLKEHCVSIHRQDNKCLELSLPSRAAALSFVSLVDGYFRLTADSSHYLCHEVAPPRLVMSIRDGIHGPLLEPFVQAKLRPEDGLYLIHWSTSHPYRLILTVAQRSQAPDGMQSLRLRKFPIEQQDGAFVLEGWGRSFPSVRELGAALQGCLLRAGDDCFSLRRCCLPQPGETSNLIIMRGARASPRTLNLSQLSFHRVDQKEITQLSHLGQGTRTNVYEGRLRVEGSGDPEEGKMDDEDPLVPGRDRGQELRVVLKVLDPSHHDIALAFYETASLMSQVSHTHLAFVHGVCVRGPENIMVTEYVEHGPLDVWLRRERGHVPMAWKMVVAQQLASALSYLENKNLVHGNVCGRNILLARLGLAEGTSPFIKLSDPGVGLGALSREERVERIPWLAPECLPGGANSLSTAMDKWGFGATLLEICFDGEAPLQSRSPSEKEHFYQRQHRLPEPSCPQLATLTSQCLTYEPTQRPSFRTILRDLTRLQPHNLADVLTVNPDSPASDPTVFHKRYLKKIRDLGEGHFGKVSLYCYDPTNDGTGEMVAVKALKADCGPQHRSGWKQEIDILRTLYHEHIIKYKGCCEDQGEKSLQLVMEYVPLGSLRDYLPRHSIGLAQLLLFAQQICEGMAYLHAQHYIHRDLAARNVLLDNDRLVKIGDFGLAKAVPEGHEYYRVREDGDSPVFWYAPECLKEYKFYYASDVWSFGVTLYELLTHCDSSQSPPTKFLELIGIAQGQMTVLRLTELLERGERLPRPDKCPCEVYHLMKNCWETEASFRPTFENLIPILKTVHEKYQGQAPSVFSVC

[2] = biological target: T2, human JAK2 (a.a. 828-1132) (Homo sapiens, UniProt O60674); experiment: In vitro JAK kinase assay (HTRF, phosphorylation of a biotinylated peptide), JAK2
T2 construct: JAK2 (a.a. 828-1132); His tag (N); made in house; host or cells: insect cells (baculovirus)
T2 sequence (O60674 828-1132): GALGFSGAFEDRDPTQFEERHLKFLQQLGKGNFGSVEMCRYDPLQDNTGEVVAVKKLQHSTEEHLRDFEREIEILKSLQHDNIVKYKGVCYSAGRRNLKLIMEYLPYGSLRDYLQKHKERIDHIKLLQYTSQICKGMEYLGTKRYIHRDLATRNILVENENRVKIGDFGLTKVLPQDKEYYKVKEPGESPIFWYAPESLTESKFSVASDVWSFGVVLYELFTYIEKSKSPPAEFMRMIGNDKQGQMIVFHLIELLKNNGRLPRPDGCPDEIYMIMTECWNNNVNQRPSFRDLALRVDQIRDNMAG
Outline: (§1)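 Phosphorylation of a biotinylated peptide by the JAK kinase domain, detected by HTRF with Eu-Py20 and SA-APC. ATP was 90 μM for JAK1, 30 μM for JAK2 and 3 μM for JAK3. Reactions ran 1 h at room temperature and were stopped with EDTA, followed by 40 min antibody binding.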

[3] = biological target: T3, human JAK1 (a.a. 837-1142) (Homo sapiens, UniProt P23458); experiment: In vitro JAK kinase assay (HTRF, phosphorylation of a biotinylated peptide), JAK1; conditions: read-out: JAK1 IC50
T3 construct: human JAK1 (a.a. 837-1142); His tag (N); made in house; host or cells: insect cells (baculovirus)
T3 sequence (P23458 849-1154): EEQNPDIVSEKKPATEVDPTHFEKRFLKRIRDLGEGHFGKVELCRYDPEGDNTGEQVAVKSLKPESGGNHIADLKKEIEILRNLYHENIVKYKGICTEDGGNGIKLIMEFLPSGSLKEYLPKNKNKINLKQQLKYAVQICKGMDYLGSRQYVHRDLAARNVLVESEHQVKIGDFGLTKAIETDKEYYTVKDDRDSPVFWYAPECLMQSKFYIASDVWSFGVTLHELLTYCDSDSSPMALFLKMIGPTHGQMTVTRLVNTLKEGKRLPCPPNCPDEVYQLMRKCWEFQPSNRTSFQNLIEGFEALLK
Outline: as §1

[4] = biological target: T4, human JAK3 (a.a. 781-1124) (Homo sapiens, UniProt P52333); experiment: In vitro JAK kinase assay (HTRF, phosphorylation of a biotinylated peptide), JAK3
T4 construct: JAK3 (a.a. 781-1124); His tag (N); made in house; host or cells: insect cells (baculovirus)
T4 sequence (P52333 781-1124): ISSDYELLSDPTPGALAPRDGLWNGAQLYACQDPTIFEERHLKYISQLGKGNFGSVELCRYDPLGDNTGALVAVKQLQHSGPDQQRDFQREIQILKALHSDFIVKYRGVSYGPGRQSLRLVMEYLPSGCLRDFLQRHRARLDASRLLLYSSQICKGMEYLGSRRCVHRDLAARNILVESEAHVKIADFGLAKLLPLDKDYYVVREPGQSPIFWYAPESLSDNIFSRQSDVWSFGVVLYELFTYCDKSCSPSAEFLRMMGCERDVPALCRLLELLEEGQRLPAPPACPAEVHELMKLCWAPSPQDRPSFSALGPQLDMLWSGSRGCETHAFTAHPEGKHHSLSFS
Outline: as §1

[5] = compound at 500 nM or 1 mM, 90 μM ATP
[6] = method AA1 (30 μM ATP) or AA2 (1000 μM ATP), not stated per value
[7] = method AA1 (90 μM ATP) or AA2 (1000 μM ATP), not stated per value
[8] = method AA1 (3 μM ATP) or AA2 (1000 μM ATP), not stated per value
[9] = compound at a concentration of 500 nM or 1 mM (not specified), cells shown as percentage
[10] = percentage inhibition of the example compound at a concentration of 500 nM or 1 mM (not specified which)
[11] = Table B1, cells without percent sign

T1 sequence (Q9UM73 19-1620): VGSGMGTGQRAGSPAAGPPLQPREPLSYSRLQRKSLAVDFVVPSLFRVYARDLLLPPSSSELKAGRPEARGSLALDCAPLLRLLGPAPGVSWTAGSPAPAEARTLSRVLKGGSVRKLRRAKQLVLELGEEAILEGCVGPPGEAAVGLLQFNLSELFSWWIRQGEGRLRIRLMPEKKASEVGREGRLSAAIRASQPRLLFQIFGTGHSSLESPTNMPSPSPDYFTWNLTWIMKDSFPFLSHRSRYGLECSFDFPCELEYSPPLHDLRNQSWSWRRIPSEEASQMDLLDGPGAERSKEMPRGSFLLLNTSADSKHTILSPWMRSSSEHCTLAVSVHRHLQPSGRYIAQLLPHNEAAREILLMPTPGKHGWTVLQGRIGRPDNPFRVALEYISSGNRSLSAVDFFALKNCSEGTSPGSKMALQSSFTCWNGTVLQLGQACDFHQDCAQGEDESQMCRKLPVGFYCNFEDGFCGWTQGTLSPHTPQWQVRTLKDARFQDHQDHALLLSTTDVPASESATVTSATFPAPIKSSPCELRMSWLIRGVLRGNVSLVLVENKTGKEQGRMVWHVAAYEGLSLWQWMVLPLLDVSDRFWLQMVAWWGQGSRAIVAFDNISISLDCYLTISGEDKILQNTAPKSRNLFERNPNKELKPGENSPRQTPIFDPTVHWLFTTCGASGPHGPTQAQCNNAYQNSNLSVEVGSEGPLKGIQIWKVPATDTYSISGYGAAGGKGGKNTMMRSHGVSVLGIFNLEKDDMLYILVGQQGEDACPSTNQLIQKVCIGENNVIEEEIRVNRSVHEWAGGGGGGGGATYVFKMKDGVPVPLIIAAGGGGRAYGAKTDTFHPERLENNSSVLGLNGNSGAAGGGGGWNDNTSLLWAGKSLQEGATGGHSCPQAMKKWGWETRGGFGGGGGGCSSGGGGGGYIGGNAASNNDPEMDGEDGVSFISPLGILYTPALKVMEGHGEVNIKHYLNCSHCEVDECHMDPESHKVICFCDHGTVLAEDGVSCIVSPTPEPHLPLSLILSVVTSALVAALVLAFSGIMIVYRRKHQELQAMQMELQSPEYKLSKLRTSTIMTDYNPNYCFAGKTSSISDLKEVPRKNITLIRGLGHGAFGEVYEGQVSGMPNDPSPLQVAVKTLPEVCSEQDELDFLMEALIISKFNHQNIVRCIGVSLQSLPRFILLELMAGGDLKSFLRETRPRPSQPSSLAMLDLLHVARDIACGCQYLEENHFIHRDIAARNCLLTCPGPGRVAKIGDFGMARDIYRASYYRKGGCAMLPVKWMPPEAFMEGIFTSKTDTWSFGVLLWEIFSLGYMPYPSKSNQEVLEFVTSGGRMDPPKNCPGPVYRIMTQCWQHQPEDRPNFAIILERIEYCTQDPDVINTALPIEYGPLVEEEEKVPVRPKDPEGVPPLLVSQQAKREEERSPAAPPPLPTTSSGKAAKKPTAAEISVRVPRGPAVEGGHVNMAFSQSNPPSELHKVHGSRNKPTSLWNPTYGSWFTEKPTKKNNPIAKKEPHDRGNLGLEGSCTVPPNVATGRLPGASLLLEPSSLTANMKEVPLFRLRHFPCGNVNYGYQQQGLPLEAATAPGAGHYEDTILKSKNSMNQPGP

ALK % of inhibition at a concentration of 500 nM or 1 mM [1, 5] [%] | IC50 (TYK2) [nM] | IC50 [2, 6] [nM] | IC50 [3, 7] [nM] | IC50 [4, 8] [nM] | IC50 (TYK2; Table B1) [nM] | IC50 ([2]; Table B1) [nM] | IC50 ([3]; Table B1) [nM] | IC50 ([4]; Table B1) [nM] | Compound | also measured
52 | 5.7 | 1.1 | 0.5 | > 100 | – | – | – | – | COc1cccc(NC(=O)N2CCC(CC(=O)Nc3ccc4cc3CCc3cncc(c3)Nc3ncc(Cl)c(n3)N4)CC2)c1 [Example A153, 4-(2-{[6-chloro-2,4,8,18,22-pentaazatetracyclo[14.3.1.1(3,7).1(9,13)]docosa-1(20),3(22),4,6,9(21),10,12,16,18-nonaen-12-yl]amino}-2-oxoethyl)-N-(3-methoxyphenyl)piperidine-1-carboxamide bis(trifluoroacetate)] | –
– | – | – | – | – | 85 | 134 | 17 | > 200 | O=C(Nc1ccc2cc1CCc1cncc(c1)Nc1ncc(Cl)c(n1)N2)N1CCN(c2ccccn2)CC1 [Example B289, N-[6-Chloro-2,4,8,18,22-pentaazatetracyclo[14.3.1.1(3,7).1(9,13)]docosa-1(20),3(22),4,6,9(21),10,12,16,18-nonaen-12-yl]-4-pyridin-2-ylpiperazine-1-carboxamide tris(trifluoroacetate)] | ALK % of inhibition at a concentration of 500 nM or 1 mM [1, 9]: 65%
– | – | – | – | – | 180 | 41 | 1.2 | > 400 | CN(Cc1ccc2cc1CCc1cncc(c1)Nc1ncc(Cl)c(n1)N2)CC1CCN(S(=O)(=O)c2ccccc2C#N)CC1 [Example B340, 2-[(4-{[{[6-Chloro-2,4,8,18,22-pentaazatetracyclo[14.3.1.1(3,7).1(9,13)]docosa-1(20),3(22),4,6,9(21),10,12,16,18-nonaen-12-yl]methyl}(methyl)amino]methyl}piperidin-1-yl)sulfonyl]benzonitrile tris(trifluoroacetate)] | ALK % of inhibition at a concentration of 500 nM or 1 mM [1, 10]: 24%
23 | 148 | 103 | 45 | 298 | – | – | – | – | C[N+]1(C)CCC(CC(=O)Nc2ccc3cc2CCc2cccc(c2)Nc2ncc(Cl)c(n2)N3)CC1 [Example A111, 4-(2-{[6-Chloro-2,4,8,22-tetraazatetracyclo[14.3.1.1(3,7).1(9,13)]docosa-1(20),3(22),4,6,9(21),10,12,16,18-nonaen-12-yl]amino}-2-oxoethyl)-1,1-dimethylpiperidinium bis(trifluoroacetate)] | –
27 | > 200 | > 200 | 58 | > 200 | – | – | – | – | O=C(CC1CCN(C(=O)c2cnoc2C2CC2)CC1)Nc1ccc2cc1CCc1cncc(c1)Nc1ncc(Cl)c(n1)N2 [Example A213, N-[6-Chloro-2,4,8,18,22-pentaazatetracyclo[14.3.1.1(3,7).1(9,13)]docosa-1(20),3(22),4,6,9(21),10,12,16,18-nonaen-12-yl]-2-{1-[(5-cyclopropylisoxazol-4-yl)carbonyl]piperidin-4-yl}acetamide bis(trifluoroacetate)] | –
– | – | – | – | – | – | – | – | – | O=C(Nc1cc2cc(c1)OCCSc1cccc(c1)Nc1nc(ncc1Cl)N2)c1ccc2occc2c1 [Example D61, N-[6-Chloro-17-oxa-14-thia-2,4,8,24-tetraazatetracyclo[16.3.1.1(3,7).1(9,13)]tetracosa-1(22),3(24),4,6,9(23),10,12,18,20-nonaen-20-yl]-1-benzofuran-5-carboxamide trifluoroacetate] | IC50 ([1]; Table D1, 90 μM ATP): > 10000 nM; IC50 (TYK2; Table D1): 8 nM; IC50 ([2]; Table D1): 2.1 nM; IC50 ([3]; Table D1): 18 nM; IC50 ([4]; Table D1): 41 nM
– | 4.7 | 2.7 | 6 | 8.5 | – | – | – | – | Clc1cnc2nc1Nc1cccc(c1)/C=C\c1cccc(c1)N2 [Example A1, (14Z)-6-Chloro-2,4,8,22-tetraazatetracyclo[14.3.1.1(3,7).1(9,13)]docosa-1(20),3(22),4,6,9(21),10,12,14,16,18-decaene trifluoroacetate] | IC50 ([1]; 90 μM ATP): 415 nM
– | – | – | – | – | 18 | 2.3 | 14 | 5.8 | OCc1cc2cc(c1)Nc1nc(ncc1Cl)Nc1cccc(c1)CC2 [Example B24, [6-Chloro-2,4,8,22-tetraazatetracyclo[14.3.1.1(3,7).1(9,13)]docosa-1(20),3(22),4,6,9(21),10,12,16,18-nonaen-11-yl]methanol trifluoroacetate] | IC50 [1, 11]: 781 nM
– | – | – | – | – | 22 | 9.3 | 6.7 | 110 | Cc1cc(C(=O)N2CCC(NC(=O)Nc3ccc4cc3CCc3cccc(c3)Nc3ncc(Cl)c(n3)N4)CC2)no1 [Example B263, N-[6-Chloro-2,4,8,22-tetraazatetracyclo[14.3.1.1(3,7).1(9,13)]docosa-1(20),3(22),4,6,9(21),10,12,16,18-nonaen-12-yl]-N′-{1-[(5-methylisoxazol-3-yl)carbonyl]piperidin-4-yl}urea trifluoroacetate] | ALK % of inhibition at a concentration of 500 nM or 1 mM [1, 9]: 29%
– | – | – | – | – | 6.3 | 1.8 | 3.7 | 17 | O=C(Nc1ccc2cc1CCc1cccc(c1)Nc1ncc(Cl)c(n1)N2)c1nccs1 [Example B52, N-[6-Chloro-2,4,8,22-tetraazatetracyclo[14.3.1.1(3,7).1(9,13)]docosa-1(20), 3(22),4,6,9(21),10,12,16,18-nonaen-12-yl]-1,3-thiazole-2-carboxamide trifluoroacetate] | IC50 [1, 11]: 910 nM
26 | > 200 | > 200 | 74 | > 200 | – | – | – | – | CC(C)c1oncc1C(=O)N1CCC(CC(=O)Nc2ccc3cc2CCc2cncc(c2)Nc2ncc(Cl)c(n2)N3)CC1 [Example A218, N-[6-Chloro-2,4,8,18,22-pentaazatetracyclo[14.3.1.1(3,7).1(9,13)]docosa-1(20),3(22),4,6,9(21),10,12,16,18-nonaen-12-yl]-2-{1-[(5-isopropylisoxazol-4-yl)carbonyl]piperidin-4-yl}acetamide bis(trifluoroacetate)] | –
– | – | – | – | – | 4 | 3.9 | 0.62 | 46 | CC(C)(C)OC(=O)NCCNC(=O)Nc1ccc2cc1CCc1cccc(c1)Nc1ncc(Cl)c(n1)N2 [Example B185, tert-Butyl {2-[({[6-chloro-2,4,8,22-tetraazatetracyclo[14.3.1.1(3,7).1(9,13)]docosa-1(20),3(22),4,6,9(21),10,12,16,18-nonaen-12-yl]amino}carbonyl)amino]ethyl}carbamate] | ALK % of inhibition at a concentration of 500 nM or 1 mM [1, 9]: 12%
42 | 89 | 81 | 6.3 | > 200 | – | – | – | – | O=C(CC1CCN(c2cccc(F)n2)CC1)Nc1ccc2cc1CCc1cncc(c1)Nc1ncc(Cl)c(n1)N2 [Example A181, N-[6-Chloro-2,4,8,18,22-pentaazatetracyclo[14.3.1.1(3,7).1(9,13)]docosa-1(20),3(22),4,6,9(21),10,12,16,18-nonaen-12-yl]-2-[1-(6-fluoropyridin-2-yl)piperidin-4-yl]acetamide tris(trifluoroacetate)] | –
– | – | – | – | – | 32 | 9.5 | 3.7 | 184 | CC1(C)Cc2cccc(NC(=O)Nc3ccc4cc3CCc3cccc(c3)Nc3ncc(Cl)c(n3)N4)c2O1 [Example B129, N-[6-Chloro-2,4,8,22-tetraazatetracyclo[14.3.1.1(3,7).1(9,13)]docosa-1(20),3(22),4,6,9(21),10,12,16,18-nonaen-12-yl]-N′-(2,2-dimethyl-2,3-dihydro-1-benzofuran-7-yl)urea trifluoroacetate] | ALK % of inhibition at a concentration of 500 nM or 1 mM [1, 9]: 7.3%
– | – | – | – | – | 66 | 217 | 36 | > 400 | O=C(Nc1ccc2cc1CCc1cncc(c1)Nc1ncc(Cl)c(n1)N2)N1CCN(c2ccc(Cl)cc2)CC1 [Example B307, N-[6-Chloro-2,4,8,18,22-pentaazatetracyclo[14.3.1.1(3,7).1(9,13)]docosa-1(20),3(22),4,6,9(21),10,12,16,18-nonaen-12-yl]-4-(4-chlorophenyl)piperazine-1-carboxamide tris(trifluoroacetate)] | ALK % of inhibition at a concentration of 500 nM or 1 mM [1, 10]: 74%
27 | > 200 | > 200 | – | > 200 | – | – | – | – | N#Cc1ccc(C(=O)N2CCC(CC(=O)Nc3ccc4cc3CCc3cncc(c3)Nc3ncc(Cl)c(n3)N4)CC2)cc1 [Example A190, N-[6-Chloro-2,4,8,18,22-pentaazatetracyclo[14.3.1.1(3,7).1(9,13)]docosa-1(20),3(22),4,6,9(21),10,12,16,18-nonaen-12-yl]-2-[1-(4-cyanobenzoyl)piperidin-4-yl]acetamide bis(trifluoroacetate)] | –

Source: patent US8871753B2, “Macrocyclic compounds and their use as kinase inhibitors” (Incyte Corporation, priority 2008, dated 2014)
